Patent publication US20080200454A1, “CARBON-LINKED TETRAHYDRO-PYRAZOLO-PYRIDINE MODULATORS OF CATHEPSIN S” (priority 2007, published 2008)
Like-named read-outs stand apart in the source and are kept apart here.

Target: Recombinant human cathepsin S (CatS) (Homo sapiens, UniProt P25774)
Test: Recombinant human cathepsin S (CatS) inhibition assay, fluorogenic substrate Z-Valine-Valine-Arginine-AMC;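 also: Baculovirus-expressed CatS in pH 5.0 sodium acetate buffer with DTT and NaCl, fluorescence read each minute over 20 min, inhibition derived from rate slope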

Chain of Recombinant human cathepsin S (CatS) (P25774 115-331): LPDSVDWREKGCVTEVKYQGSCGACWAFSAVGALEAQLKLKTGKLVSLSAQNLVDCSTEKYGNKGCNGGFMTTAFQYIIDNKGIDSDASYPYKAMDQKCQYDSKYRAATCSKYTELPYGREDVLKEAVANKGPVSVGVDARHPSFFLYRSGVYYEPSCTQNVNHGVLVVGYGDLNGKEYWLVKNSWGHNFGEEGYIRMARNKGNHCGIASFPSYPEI

Row | IC50 [µM] | SMILES | IC50 (CatS IC50) [µM]
1 | 0.23 | NC(=O)N1CCc2c(c(-c3ccc(Cl)c(C#Cc4cccc(CNCc5ccccc5Cl)c4)c3)nn2CCCN2CCSCC2)C1 [Example 513, 3-(4-Chloro-3-{[3-({[(2-chlorophenyl)methyl]amino}methyl)phenyl]ethynyl}phenyl)-1-(3-thiomorpholin-4-ylpropyl)-1,4,6,7-tetrahydro-5H-pyrazolo[4,3-c]pyridine-5-carboxamide] | –
2 | – | NC(=O)N1CCc2c(c(-c3ccc(Cl)c(C#Cc4cccc(CNCc5cccc(Cl)c5)c4)c3)nn2CCCN2CCSCC2)C1 [Example 514, 3-(4-Chloro-3-{[3-({[(3-chlorophenyl)methyl]amino}methyl)phenyl]ethynyl}phenyl)-1-(3-thiomorpholin-4-ylpropyl)-1,4,6,7-tetrahydro-5H-pyrazolo[4,3-c]pyridine-5-carboxamide] | 0.14
3 | – | NC(=O)N1CCc2c(c(-c3ccc(Cl)c(C#Cc4cccc(CNCc5ccccc5F)c4)c3)nn2CCCN2CCSCC2)C1 [Example 515, 3-(4-Chloro-3-{[3-({[(2-fluorophenyl)methyl]amino}methyl)phenyl]ethynyl}phenyl)-1-(3-thiomorpholin-4-ylpropyl)-1,4,6,7-tetrahydro-5H-pyrazolo[4,3-c]pyridine-5-carboxamide] | 0.25
4 | – | NC(=O)N1CCc2c(c(-c3ccc(Cl)c(C#Cc4cccc(CNCc5ccc(F)cc5)c4)c3)nn2CCCN2CCSCC2)C1 [Example 517, 3-(4-Chloro-3-{[3-({[(4-fluorophenyl)methyl]amino}methyl)phenyl]ethynyl}phenyl)-1-(3-thiomorpholin-4-ylpropyl)-1,4,6,7-tetrahydro-5H-pyrazolo[4,3-c]pyridine-5-carboxamide] | 0.19
5 | – | CN1CCc2cc(C#Cc3cc(-c4nn(CCCN5CCOCC5)c5c4CN(S(C)(=O)=O)CC5)ccc3Cl)ccc2C1 [Example 518, 6-({2-Chloro-5-[5-(methylsulfonyl)-1-(3-morpholin-4-ylpropyl)-4,5,6,7-tetrahydro-1H-pyrazolo[4,3-c]pyridin-3-yl]phenyl}ethynyl)-2-methyl-1,2,3,4-tetrahydroisoquinoline] | 0.39
6 | – | C[C@H]1COCCN1CCCn1nc(-c2ccc(Cl)c(C#Cc3ccc4c(c3)CCN(C)C4)c2)c2c1CCN(S(C)(=O)=O)C2 [Example 519, 6-({2-Chloro-5-[1-{3-[(3S)-3-methylmorpholin-4-yl]propyl}-5-(methylsulfonyl)-4,5,6,7-tetrahydro-1H-pyrazolo[4,3-c]pyridin-3-yl]phenyl}ethynyl)-2-methyl-1,2,3,4-tetrahydroisoquinoline] | 0.4
7 | – | CC(C)CNCc1cccc(C#Cc2cc(-c3nn(CCCN4CCOCC4)c4c3CN(S(C)(=O)=O)CC4)ccc2Cl)c1 [Example 520, N-{[3-({2-Chloro-5-[5-(methylsulfonyl)-1-(3-morpholin-4-ylpropyl)-4,5,6,7-tetrahydro-1H-pyrazolo[4,3-c]pyridin-3-yl]phenyl}ethynyl)phenyl]methyl}-2-methylpropan-1-amine] | 0.44
8 | – | CS(=O)(=O)N1CCc2c(c(-c3ccc(Cl)c(C#Cc4cccc(CNCc5cccnc5)c4)c3)nn2CCCN2CCOCC2)C1 [Example 521, 1-[3-({2-Chloro-5-[5-(methylsulfonyl)-1-(3-morpholin-4-ylpropyl)-4,5,6,7-tetrahydro-1H-pyrazolo[4,3-c]pyridin-3-yl]phenyl}ethynyl)phenyl]-N-(pyridin-3-ylmethyl)methanamine] | 0.37
9 | – | CS(=O)(=O)N1CCc2c(c(-c3ccc(Cl)c(C#Cc4cccc(CNCc5ccncc5)c4)c3)nn2CCCN2CCOCC2)C1 [Example 522, 1-[3-({2-Chloro-5-[5-(methylsulfonyl)-1-(3-morpholin-4-ylpropyl)-4,5,6,7-tetrahydro-1H-pyrazolo[4,3-c]pyridin-3-yl]phenyl}ethynyl)phenyl]-N-(pyridin-4-ylmethyl)methanamine] | 0.33
10 | – | CC(C)CN1CCc2cc(C#Cc3cc(-c4nn(CCCN5CCOCC5)c5c4CN(S(C)(=O)=O)CC5)ccc3Cl)ccc2C1 [Example 523, 6-({2-Chloro-5-[5-(methylsulfonyl)-1-(3-morpholin-4-ylpropyl)-4,5,6,7-tetrahydro-1H-pyrazolo[4,3-c]pyridin-3-yl]phenyl}ethynyl)-2-(2-methylpropyl)-1,2,3,4-tetrahydroisoquinoline] | 0.53
11 | – | CS(=O)(=O)c1ccc(CNCc2cccc(C#Cc3cc(-c4nn(CCCN5CCOCC5)c5c4CN(S(C)(=O)=O)CC5)ccc3Cl)c2)cc1 [Example 524, 1-[3-({2-Chloro-5-[5-(methylsulfonyl)-1-(3-morpholin-4-ylpropyl)-4,5,6,7-tetrahydro-1H-pyrazolo[4,3-c]pyridin-3-yl]phenyl}ethynyl)phenyl]-N-{[4-(methylsulfonyl)phenyl]methyl}methanamine] | 0.53
12 | 0.35 | CC(C)(C)OC(=O)N1CCc2cc(C#Cc3cc(-c4nn(CCCN5CCOCC5)c5c4CN(S(C)(=O)=O)CC5)ccc3Cl)ccc2C1=O [Example 525, 1,1-Dimethylethyl 6-({2-chloro-5-[5-(methylsulfonyl)-1-(3-morpholin-4-ylpropyl)-4,5,6,7-tetrahydro-1H-pyrazolo[4,3-c]pyridin-3-yl]phenyl}ethynyl)-1-oxo-3,4-dihydroisoquinoline-2(1H)-carboxylate] | –
13 | – | CCOC(=O)CN1CCc2cc(C#Cc3cc(-c4nn(CCCN5CCOCC5)c5c4CN(S(C)(=O)=O)CC5)ccc3Cl)ccc2C1 [Example 526, Ethyl [6-({2-chloro-5-[5-(methylsulfonyl)-1-(3-morpholin-4-ylpropyl)-4,5,6,7-tetrahydro-1H-pyrazolo[4,3-c]pyridin-3-yl]phenyl}ethynyl)-3,4-dihydroisoquinolin-2(1H)-yl]acetate] | 0.37
14 | – | C=CCN1CCc2cc(C#Cc3cc(-c4nn(CCCN5CCOCC5)c5c4CN(S(C)(=O)=O)CC5)ccc3Cl)ccc2C1 [Example 527, 6-({2-Chloro-5-[5-(methylsulfonyl)-1-(3-morpholin-4-ylpropyl)-4,5,6,7-tetrahydro-1H-pyrazolo[4,3-c]pyridin-3-yl]phenyl}ethynyl)-2-prop-2-en-1-yl-1,2,3,4-tetrahydroisoquinoline] | 0.3
15 | – | CN(Cc1ccccc1)Cc1cccc(C#Cc2cc(-c3nn(CCCN4CCOCC4)c4c3CN(S(C)(=O)=O)CC4)ccc2Cl)c1 [Example 528, 1-[3-({2-Chloro-5-[5-(methylsulfonyl)-1-(3-morpholin-4-ylpropyl)-4,5,6,7-tetrahydro-1H-pyrazolo[4,3-c]pyridin-3-yl]phenyl}ethynyl)phenyl]-N-methyl-N-(phenylmethyl)methanamine] | 0.58
16 | – | C[C@H]1COCCN1C[C@@H](O)Cn1nc(-c2ccc(Cl)c(C#Cc3ccc(CNCc4ccc(Cl)cc4)cc3)c2)c2c1CCN(S(C)(=O)=O)C2 [Example 529, (2R)-1-[3-(4-Chloro-3-{[4-({[(4-chlorophenyl)methyl]amino}methyl)phenyl]ethynyl}phenyl)-5-(methylsulfonyl)-4,5,6,7-tetrahydro-1H-pyrazolo[4,3-c]pyridin-1-yl]-3-[(3S)-3-methylmorpholin-4-yl]propan-2-ol] | 0.12
17 | 1.33 | CN(Cc1ccccc1)Cc1cccc(CCc2cc(-c3nn(CCCN4CCOCC4)c4c3CN(S(C)(=O)=O)CC4)ccc2Cl)c1 [Example 530, 1-[3-(2-{2-Chloro-5-[5-(methylsulfonyl)-1-(3-morpholin-4-ylpropyl)-4,5,6,7-tetrahydro-1H-pyrazolo[4,3-c]pyridin-3-yl]phenyl}ethyl)phenyl]-N-methyl-N-(phenylmethyl)methanamine] | –
